# Measurements taken from US20250170154A1 (GreenStone Biosciences, Inc., priority 2023, published 2025).
# Tests used:
# Myh6-Cre:FLNC^wt/F mouse = experiment: FLNC knockout model, echocardiography; type: in vivo; settings: 50 mg/Kg/day by gavage for 6 weeks
# Description: The LMNA^H222P/H222P mouse is a well-established model for studying dilated cardiomyopathy and heart failure, with cardiac dysfunction typically beginning to manifest at around 16 weeks of age. In this study, 16-week-old LMNA^H222P/H222P mice underwent baseline echocardiography prior to treatment. Compound 2 was then administered continuously for 4 weeks using osmotic pumps, with DMSO as the vehicle control. At the end of the treatment period, echocardiography was performed again to assess the impact of compound 2 on cardiac function compared to the control group. […] In a FLNC knockout model using the Myh6-Cre:FLNC^wt/F mouse, 16-week-old mice underwent baseline echocardiography, were treated with compound 2 at 50 mg/Kg/day or vehicle by gavage for 6 weeks, and underwent echocardiography to assess the change in cardiac function. […] The genistein phosphate derivatives of this invention are therefore expected to be useful for the treatment of subjects with dilated cardiomyopathy.
# [1] = Intestinal stability, rat intestinal S9; type: in vitro ADME
# Description: (§1) The stability of compounds 1 and 2, and the control compound 7-hydroxycoumarin, were measured using human, rat, and mouse intestinal S9 fractions (Xenotech). Test compound working solutions were prepared by diluting 5 μL of 10 mM stock solutions in DMSO with 495 μL AN. S9 solutions were prepared by diluting the obtained S9 solutions to 1.0 mg/mL in 100 mM potassium phosphate buffer at pH 7.4 containing 10 mM D-saccharic acid-1,4-lactone. An Apricot automation workstation was used to add 100 μL/well of S9 solution to all reaction plates (Blank, T0, T5, T15, T30, T45, T60 and NCF60); 2 μL/well of compound working solutions were added to all 96-well reaction plates except the blank (T0, T5, T15, T30, T45, T60, and NCF60); 600 μL/well of stop solution (4° C. ACN containing 200 ng/mL tolbutamide and 200 ng/mL labetalol as internal standards) was added to the T0 reaction plate; all plates were pre-incubated at 37° C. for 10 minutes; a cofactor regenerating system (98 μL/well) was added, excluding the NCF60 plate which instead received 98 μL/well of 100 mM potassium phosphate buffer. All plates were then incubated at 37° C. To terminate reactions, 600 μL/well of stop solution was applied at specific end time points. After sealing and a 10-minute shaking, plates were centrifuged at 4000 rpm and 4° C. for 20 minutes. Concurrently, 300 μL/well of HPLC grade water was loaded onto eight new 96-well bioanalysis plates. Post-centrifugation, 100 μL supernatant from each reaction plate was transferred to its corresponding bioanalysis plate, shaken for 10 minutes, and then subjected to LC-MS/MS analysis (Shimadzu LC-40D LC system coupled to a Sciex Qtrap 6500 Plus mass spectrometer, using both positive and negative ion modes).
# [2] = Intestinal stability, mouse intestinal S9; type: in vitro ADME; settings: intestinal S9 fraction
# Description: as §1
# log P = type: physicochemical
# [3] = Conjugate formation in intestinal S9 incubations; type: in vitro ADME, human, rat, mouse
# Description: as §1, with “Concurrently, 300 μL/well of HPLC grade water was loaded onto eight new 96-well bioanalysis plates. Post-centrifugation, 100 μL supernatant from each reaction plate was transferred to its corresponding bioanalysis plate, shaken for 10 minutes, and then subjected to LC-MS/MS analysis (Shimadzu LC-40D LC system coupled to a Sciex Qtrap 6500 Plus mass spectrometer, using both positive and negative ion modes).” left out
# [4] = test system: mice with DSS-induced colitis; experiment: DSS-induced colitis in mice; type: in vivo, mouse; settings: 50 mg/Kg daily by gavage
# Description: Mice, placed on a soy-free diet for 14 days, were administered 3.5% DSS in their drinking water for 8 days to induce colitis, and either untreated or treated with compound 2 at 50 mg/Kg daily by gavage from day 1 (prevention) or from day 5 (intervention); and monitored for clinical indicators of colitis, including stool consistency, rectal bleeding, and changes in body weight. […] The genistein phosphate derivatives of this invention are therefore expected to be useful for the treatment of subjects with inflammatory bowel disease, ulcerative colitis, and Crohn's disease.
# [5] = test system: mice with cerulein-induced acute edematous pancreatitis; experiment: Cerulein model of acute edematous pancreatitis; type: in vivo, mouse; settings: 100 mg/Kg by gavage 30 minutes after first and fourth cerulein injections; initial findings
# Description: (§2) Using the cerulein model, acute edematous pancreatitis was induced in two test groups of mice by eight hourly intraperitoneal injections of 50 μg/Kg cerulein, with control group mice receiving injections of physiological saline. Compound 2, at 100 mg/Kg, was administered to one of the cerulein groups by gavage 30 minutes after the first and fourth cerulein injections. Mice were sacrificed one hour after the last injection and tissues were collected for histological analysis. […] Recurrent acute pancreatitis (RAP) and chronic pancreatitis (CP) were induced by repetitive cerulein injections every third day over a span of 14 days (RAP) or 6 weeks (CP). Compound 2 was administered daily at 50 mg/Kg on the last 10 consecutive days for RAP and at 100 mg/Kg on the last 4 weeks for CP, with vehicle controls. Mice were sacrificed 1 day after the last cerulein injection and tissues were collected for histological analysis. In the CP model, the cerulein injections induced extensive acinar cell damage.
# 16 month-old mice = 16 month-old mice with 7-day osmotic pumps; type: in vivo, mouse
# Description: Three groups of 16 month-old mice were implanted with 7-day osmotic pumps dispensing vehicle, 0.24 mg/Kg/day, and 2.4 mg/Kg/day of compound 2. All three groups of animals lost ˜1% of body weight over the 7 days.
# [6] = Pharmacokinetics in the rat, dosing in solution; settings: rat, in vivo, 25 mg/kg
# [7] = test system: mice with cerulein-induced chronic pancreatitis; experiment: Cerulein model of chronic pancreatitis (CP); type: in vivo, mouse; settings: 100 mg/Kg daily on the last 4 weeks
# Description: as §2
# [8] = both prevention and intervention modes
# [9] = 0.24 and 2.4 mg/Kg/day, 7-day osmotic pumps
smiles,measurement,setting,value
"O=c1c(-c2ccc(O)cc2)coc2cc(OCOP(=O)(O)O)cc(O)c12 [Compound 2, ((5-Hydroxy-3-(4-hydroxyphenyl)-4-oxo-4H-chromen-7-yl)oxy)methyl dihydrogen phosphate]",contractility (fractional shortening) from baseline,Myh6-Cre:FLNC^wt/F mouse,statistically significantly improved
same,contractility over vehicle-treated animals,Myh6-Cre:FLNC^wt/F mouse,improved
same,left ventricular end-diastolic diameter,Myh6-Cre:FLNC^wt/F mouse; over vehicle-treated animals,reduced
same,left ventricular end-systolic diameter,Myh6-Cre:FLNC^wt/F mouse; over vehicle-treated animals,reduced
same,normalized control factor remaining,[1],68.6%
same,half-life at 1 µM,"[1]; intestinal S9 fraction, pH 7.4",48.3 min
same,microsomal CLint at 1 µM,"[1]; intestinal S9 fraction, pH 7.4, read-out: intrinsic clearance rate",28.7 µL/min/mg
same,half-life at 1 µM,[2]; pH 7.4,68.1 min
same,microsomal CLint at 1 µM,"[2]; pH 7.4, read-out: intrinsic clearance rate",20.3 µL/min/mg
same,logP,log P,1.59
same,"formation of glucuronidation, sulfation, and glutathione conjugates",[3],noticeable absence
same,weight loss,"[4]; both prevention (from day 1) and intervention (from day 5) modes, 3.5% DSS",reduced
same,colon length,[4]; [8],improved
same,diarrhea,[4]; [8],reduced
same,histology of the colon,[4]; [8],histological improvement
same,rectal bleeding,[4]; [8],reduced
same,"acute edematous pancreatitis marked by necrosis, inflammation and edema in the pancreas (histology)",[5],efficacious in reversing
same,fasting blood glucose relative to the control group,16 month-old mice; 2.4 mg/Kg/day group,significant decrease
same,body weight lost over the 7 days,16 month-old mice; 0.24 and 2.4 mg/Kg/day groups (same as vehicle group),~1%
same,IL-13 blood levels,16 month-old mice; [9],reduced in a dose-dependent manner
same,Leptin blood levels,16 month-old mice; [9],reduced in a dose-dependent manner
same,fasting blood glucose relative to the control group,"16 month-old mice; both treatment groups, 0.24 and 2.4 mg/Kg/day, 7-day osmotic pumps",lowered
same,Cmax,"[6]; male, SD",~30 ng/mL
same,Tmax,"[6]; male, SD",~8 min
same,decline of plasma concentration of dosed compound,[6],very rapid decline in concentration
same,overall outcome over untreated mice (histology),[7],marked improvement
same,acinar cell death,[7]; vs untreated group,significant reduction
same,acinar cell density,[7]; vs untreated group,increase
